Source: ChEMBL document CHEMBL5674873, “Expression and inhibition of BRD4, EZH2 and TOP2A in neurofibromas and malignant peripheral nerve sheath tumors” (PLoS One, 2017)

What was measured:
Assay type in all cases: cell-based; call rule not given here
[1] = biological target: T1, Bromodomain-containing protein 4 (Homo sapiens, UniProt O60885); assay: Inhibition of BRD4 in human HS53T cells assessed as reduction in cell viability at 4.9 to 2500 nM incubated for 72 hrs by SRB assay
[2] = biological target: T1, Bromodomain-containing protein 4; assay: Inhibition of BRD4 in human ST88-14 cells assessed as reduction in cell viability at 4.9 to 2500 nM incubated for 72 hrs by SRB assay
[3] = biological target: T1, Bromodomain-containing protein 4; details: sts-26t
Description: Inhibition of BRD4 in human STS-26T cells assessed as reduction in cell viability at 4.9 to 2500 nM incubated for 72 hrs by SRB assay

[4] = biological target: DNA topoisomerase 2-alpha (Homo sapiens, UniProt P11388); assay: Inhibition of TOP2A in human HS53T cells assessed as reduction in cell viability at 1 to 500 ng/ml incubated for 72 hrs by SRB assay
Sequence of DNA topoisomerase 2-alpha (P11388 whole entry): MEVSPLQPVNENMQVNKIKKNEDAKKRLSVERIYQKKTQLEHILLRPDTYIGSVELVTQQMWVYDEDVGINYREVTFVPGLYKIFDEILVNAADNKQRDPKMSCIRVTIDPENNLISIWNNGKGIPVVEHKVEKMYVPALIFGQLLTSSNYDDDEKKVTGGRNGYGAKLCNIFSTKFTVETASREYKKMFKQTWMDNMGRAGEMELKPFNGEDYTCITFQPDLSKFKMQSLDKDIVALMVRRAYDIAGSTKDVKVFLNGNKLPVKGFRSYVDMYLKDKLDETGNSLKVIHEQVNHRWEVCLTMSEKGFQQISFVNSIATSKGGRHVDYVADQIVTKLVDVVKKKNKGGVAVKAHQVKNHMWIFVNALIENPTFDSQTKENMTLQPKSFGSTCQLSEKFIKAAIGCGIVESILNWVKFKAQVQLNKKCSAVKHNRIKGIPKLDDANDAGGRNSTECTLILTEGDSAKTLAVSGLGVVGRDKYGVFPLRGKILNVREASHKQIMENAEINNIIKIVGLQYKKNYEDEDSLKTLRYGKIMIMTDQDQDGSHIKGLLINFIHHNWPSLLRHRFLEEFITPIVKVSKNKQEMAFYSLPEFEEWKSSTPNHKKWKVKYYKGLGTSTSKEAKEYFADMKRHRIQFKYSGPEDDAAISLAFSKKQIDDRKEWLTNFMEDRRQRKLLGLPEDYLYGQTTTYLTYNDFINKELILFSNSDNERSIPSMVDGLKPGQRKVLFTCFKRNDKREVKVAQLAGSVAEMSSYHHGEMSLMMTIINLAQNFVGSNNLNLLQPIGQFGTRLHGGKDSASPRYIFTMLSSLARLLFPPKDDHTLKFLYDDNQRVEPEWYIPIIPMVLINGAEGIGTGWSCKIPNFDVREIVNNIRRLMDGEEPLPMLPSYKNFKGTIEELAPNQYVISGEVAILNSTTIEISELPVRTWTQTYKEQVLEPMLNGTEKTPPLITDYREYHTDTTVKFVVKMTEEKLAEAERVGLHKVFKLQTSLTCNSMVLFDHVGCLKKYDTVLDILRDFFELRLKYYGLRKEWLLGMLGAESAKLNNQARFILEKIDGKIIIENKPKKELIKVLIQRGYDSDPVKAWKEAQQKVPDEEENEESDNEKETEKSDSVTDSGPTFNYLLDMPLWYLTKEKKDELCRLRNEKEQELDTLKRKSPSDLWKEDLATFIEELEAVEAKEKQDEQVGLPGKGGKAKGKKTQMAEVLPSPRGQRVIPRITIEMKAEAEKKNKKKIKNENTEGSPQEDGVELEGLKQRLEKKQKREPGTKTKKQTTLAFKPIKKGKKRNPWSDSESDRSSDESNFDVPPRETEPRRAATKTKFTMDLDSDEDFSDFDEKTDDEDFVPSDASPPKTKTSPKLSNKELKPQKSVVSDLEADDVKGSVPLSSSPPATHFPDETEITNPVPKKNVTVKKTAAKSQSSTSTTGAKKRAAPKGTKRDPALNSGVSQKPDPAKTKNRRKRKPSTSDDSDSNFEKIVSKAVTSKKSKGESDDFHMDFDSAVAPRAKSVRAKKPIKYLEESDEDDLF

Row | Structure (SMILES) | IC50 [1] | IC50 [2] | IC50 [3] | IC50 [4]
1 | Cc1sc2c(c1C)C(c1ccc(Cl)cc1)=N[C@@H](CC(=O)OC(C)(C)C)c1nnc(C)n1-2 | Not Active | Not Active | Not Active | –
2 | COc1cccc2c1C(=O)c1c(O)c3c(c(O)c1C2=O)C[C@@](O)(C(=O)CO)C[C@@H]3O[C@H]1C[C@H](N)[C@H](O)[C@H](C)O1 [DOXORUBICIN] | – | – | – | Not Active
